Measurements as given in article PMC4230905, “(S)-3-hydroxyacyl-CoA dehydrogenase/enoyl-CoA hydratase (FadB’) from fatty acid degradation operon of Ralstonia eutropha H16” (AMB Express, 2014).

T1: FadB' ((S)-3-hydroxyacyl-CoA dehydrogenase/enoyl-CoA hydratase, H16_A0461; FadB'Re) (Cupriavidus necator, UniProt Q0KEG0)
T1 construct: N-terminal His-tag (pCOLADuet-1::3HAD), expressed in E. coli BL21; monomer (87 kDa by gel filtration); N-terminal 3HCDH and C-terminal crotonase-like domain
T1 sequence (Q0KEG0 1-807): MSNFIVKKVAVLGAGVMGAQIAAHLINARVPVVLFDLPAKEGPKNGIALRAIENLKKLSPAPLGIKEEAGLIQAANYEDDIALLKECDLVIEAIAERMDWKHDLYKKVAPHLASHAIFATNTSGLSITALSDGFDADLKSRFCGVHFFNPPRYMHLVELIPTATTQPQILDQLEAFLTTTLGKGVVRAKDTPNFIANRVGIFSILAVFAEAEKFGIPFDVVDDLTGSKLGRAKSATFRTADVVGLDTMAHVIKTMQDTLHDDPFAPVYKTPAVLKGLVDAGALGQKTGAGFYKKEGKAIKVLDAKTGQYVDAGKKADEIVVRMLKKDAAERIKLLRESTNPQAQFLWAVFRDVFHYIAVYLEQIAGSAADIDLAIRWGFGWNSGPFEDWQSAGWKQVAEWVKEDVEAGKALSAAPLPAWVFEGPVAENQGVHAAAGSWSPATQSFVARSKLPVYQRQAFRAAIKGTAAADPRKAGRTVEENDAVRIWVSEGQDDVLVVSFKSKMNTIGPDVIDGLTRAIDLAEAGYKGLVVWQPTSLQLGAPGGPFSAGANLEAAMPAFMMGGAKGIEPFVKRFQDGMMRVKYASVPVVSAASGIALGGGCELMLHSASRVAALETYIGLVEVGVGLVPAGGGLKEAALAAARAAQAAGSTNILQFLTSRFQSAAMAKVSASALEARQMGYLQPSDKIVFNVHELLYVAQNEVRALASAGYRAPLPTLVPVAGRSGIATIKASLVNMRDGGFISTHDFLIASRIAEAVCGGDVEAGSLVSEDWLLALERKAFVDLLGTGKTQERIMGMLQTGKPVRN

B1: FadB' ((S)-3-hydroxyacyl-CoA dehydrogenase/enoyl-CoA hydratase, H16_A0461; FadB'Re) (Cupriavidus necator H16) (protein)
chain: T1 sequence (Q0KEG0 1-807)
notes: N-terminal His-tag (pCOLADuet-1::3HAD), expressed in E. coli BL21; monomer (87 kDa by gel filtration); N-terminal 3HCDH and C-terminal crotonase-like domain

What was measured:
[1] = target: T1, FadB' ((S)-3-hydroxyacyl-CoA dehydrogenase/enoyl-CoA hydratase, H16_A0461; FadB'Re); assay: coupled assay, acetoacetyl-CoA-Mg2+ complex formation at […] nm; format: biochemical; conditions: read-out: % inhibition at 0.1 mM (enoyl-CoA hydratase activity)
[2] = target: T1, FadB' ((S)-3-hydroxyacyl-CoA dehydrogenase/enoyl-CoA hydratase, H16_A0461; FadB'Re); assay: spectrophotometric NADH oxidation at […] nm; format: biochemical; conditions: read-out: % inhibition at 0.1 mM (3-hydroxyacyl-CoA dehydrogenase activity)
purified protein = substrate: CC(=O)CC(=O)SCCNC(=O)CCNC(=O)[C@H](O)C(C)(C)COP(=O)(O)OP(=O)(O)OC[C@H]1O[C@@H](n2cnc3c(N)ncnc32)[C@H](O)[C@@H]1OP(=O)(O)O; assay: purified protein; format: biochemical, Cupriavidus necator; conditions: 3-hydroxyacyl-CoA dehydrogenase activity (reduction direction), 0.2 mM NADH, 100 mM Tris-HCl pH 7, 30 °C, no acetyl-CoA added

Molecule	inhibition at 100 µM [1] [%]	inhibition at 100 µM [2] [%]	Km (purified protein) [µM]
CC(C)(COP(=O)(O)OP(=O)(O)OC[C@H]1O[C@@H](n2cnc3c(N)ncnc32)[C@H](O)[C@@H]1OP(=O)(O)O)[C@@H](O)C(=O)NCCC(=O)NCCS [CoA]	30	20	
CC(=O)SCCNC(=O)CCNC(=O)[C@H](O)C(C)(C)COP(=O)(O)OP(=O)(O)OC[C@H]1O[C@@H](n2cnc3c(N)ncnc32)[C@H](O)[C@@H]1OP(=O)(O)O [acetyl-CoA]	70	~50	
CCC(=O)SCCNC(=O)CCNC(=O)[C@H](O)C(C)(C)COP(=O)(O)OP(=O)(O)OC[C@H]1O[C@@H](n2cnc3c(N)ncnc32)[C@H](O)[C@@H]1OP(=O)(O)O [propionyl-CoA]	~60		
B1			48
